Assay [1] concerns the target human GABAA α5β2γ1 receptor (Homo sapiens (Human), UniProt P31644+Q8N1C3). Nature of the assay: Radioligand binding assay, competition for [3H]RO7239181, γ1-containing GABAA subtypes. The protocol:
The affinity of compounds at GABAA γ1 subunit-containing receptors was measured by competition for [^3H]RO7239181 (67.3 Ci/mmol; Roche) binding to membranes from HEK293F cells (ThermoFisher R79007) expressing human (transiently transfected) receptors of composition α5β2γ1, α2β2γ1, α1β2γ1. For better protein expression of the α2 subunit-containing receptors, the 28 amino acid long signal peptide (Met1 to Ala28) of the human GABAA α2 subunit was substituted by the 31 amino acid long signal peptide (Met1 to Ser31) of human GABAA α5 subunit.
(§1) Harvested pellets from HEK293F cells expressing the different GABAA receptor subtypes were resuspended in Mannitol Buffer pH 7.2-7.4 (Mannitol 0.29 M, Triethylamine 10 mM, Acetic acid 10 mM, EDTA 1 mM plus protease inhibitors (20 tablets Complete, Roche Diagnostics Cat. No. 05 056 489 001 per liter)), washed two times and then resuspended at 1:10 to 1:15 dilution in the same buffer. Cell disruption was performed by stirring the suspension in a Parr vessel #4637 at 435 psi for 15 minutes, and then the suspensions were centrifuged at 1000×g for 15 minutes at 4° C. (Beckman Avanti J-HC; rotor JS-4.2). The supernatant (S1) was transferred in a 21 Schott flask and the pellet (P1) was resuspended with Mannitol Buffer up to 175 ml. The resuspended pellet was transferred into a 250 ml Corning centrifugal beaker and centrifuged at 1500×g for 10 minutes at 4° C. (Beckman Avanti J-HC; rotor JS-4.2). The supernatant (S1) was then transferred in the 21 Schott flask and the pellet was discarded. The supernatants (S1) were centrifuged in 500 ml Beckman polypropylene centrifugal beaker at 15'000×g for 30 minutes at 4° C. (Beckman Avanti J-20 XP; rotor JLA-10.500). The pellet (P2) was resuspended with Mannitol Buffer 1:1 and frozen at −80° C. The supernatant (S2) was centrifuged in 100 ml Beckman polypropylene centrifugal tubes at 48000×g for 50 minutes at 4° C. (Beckman Avanti J-20 XP; rotor JA-18). The supernatant (S3) was discarded and the pellet (P3) was resuspended with 1:1 Mannitol Buffer. The P2 and P3 protein concentration was determined with the BIORAD Standard assay method with bovine serum albumin as standard and measured on the NANO-Drop 1000. The membrane suspension was aliquots (500 μl per tube) and stored at −80° C. until required.
(§2) Membrane homogenates were resuspended and polytronised (Polytron PT1200E Kinematica AG) in Potassium Phosphate 10 mM, KCl 100 mM binding buffer at pH 7.4 to a final assay concentration determined with a previous experiment.
Radioligand binding assays were carried out in a volume of 200 μL (96-well plates) which contained 100 μL of cell membranes, [^3H]RO7239181 at a concentration of 1.5 nM (α5β2γ1) or 20-30 nM (α1β2γ1, α2β2γ1) and the test compound in the range of [0.3-10000]×10^−9 M. Nonspecific binding was defined by 10×10^−6 (α5β2γ1) and 30×10^−6 M RO7239181 and typically represented less than 5% (α5β2γ1) and less than 20% (α1β2γ1, α2β2γ1) of the total binding. Assays were incubated to equilibrium for 1 hour at 4° C. and then, membranes were filtered onto unifilter (96-well white microplate with bonded GF/C filters preincubated 20-50 minutes in 0.3% Polyethylenimine) with a Filtermate 196 harvester (Packard BioScience) and washed 4 times with cold Potassium Phosphate 10 mM pH 7.4, KCl 100 mM binding buffer. After anhydrousing, filter-retained radioactivity was detected by liquid scintillation counting. Ki values were calculated using Excel-Fit (Microsoft) and are the means of two determinations.

Assay [2] deals with human GABAA α2β2γ1 receptor (Homo sapiens (Human), UniProt P47869+Q8N1C3). The description is as above. How it is done:
The affinity of compounds at GABAA γ1 subunit-containing receptors was measured by competition for [^3H]RO7239181 (67.3 Ci/mmol; Roche) binding to membranes from HEK293F cells (ThermoFisher R79007) expressing human (transiently transfected) receptors of composition α5β2γ1, α2β2γ1, α1β2γ1.
as §1, §2
Assays were incubated to equilibrium for 1 hour at 4° C. and then, membranes were filtered onto unifilter (96-well white microplate with bonded GF/C filters preincubated 20-50 minutes in 0.3% Polyethylenimine) with a Filtermate 196 harvester (Packard BioScience) and washed 4 times with cold Potassium Phosphate 10 mM pH 7.4, KCl 100 mM binding buffer. After anhydrousing, filter-retained radioactivity was detected by liquid scintillation counting. Ki values were calculated using Excel-Fit (Microsoft) and are the means of two determinations.

In assay [3] the target is human GABAA α1β3γ2 receptor (Homo sapiens (Human), UniProt P14867+P18507). Put plainly: Radioligand binding assay, competition for [3H]Flumazenil, γ2-containing GABAA subtypes. The conditions noted are these: for γ2/γ1 Selectivity Ratio: Ki α1β3γ2 (nM)/Ki α2β2γ1 (nM); for LogSel: Log[Ki α1β3γ2 (nM)/Ki α2β2γ1 (nM)]. The protocol: The affinity of compounds at GABAA γ2 subunit-containing receptors was measured by competition for [^3H]Flumazenil (81.1 Ci/mmol; Roche) binding to HEK293F cells expressing human (transiently transfected) receptors of composition α1β3γ2.
Harvested pellets from HEK293F cells expressing the different GABAA γ2 receptor subtypes were resuspended in Mannitol Buffer pH 7,2-7,4 and processed as described above for the cells expressing the GABAA γ1 subunit-containing receptors.
Assays were incubated to equilibrium for 1 hour at 4° C. and harvested onto GF/C uni-filters (Packard) by filtration using a Packard harvester and washing with ice-cold wash buffer (50 mM Tris; pH 7.5). After anhydrousing, filter-retained radioactivity was detected by liquid scintillation counting. Ki values were calculated using Excel-Fit (Microsoft) and are the means of two determinations.

For a further assay, the target named is h-GABA-A α2β2γ1 (Homo sapiens (Human), UniProt P47869+Q8N1C3). Nature of the assay: Two-electrode voltage clamp electrophysiology in Xenopus oocytes expressing GABAA receptors. It counts as cell-based. The settings on record: α2β2γ1 GABAA receptor subtype expressing oocytes, reference PAMs. How it is done:
Xenopus Oocytes Preparation Xenopus laevis oocytes at maturation stages V-VI were used for the expression of cloned mRNA encoding GABAA receptor subunits. Oocytes ready for RNA micro-injection were bought from Ecocyte, Castrop-Rauxel, Germany and stored in modified Barth's medium (composition in mM: NaCl 88, KCl 1, NaHCO3 2.4, HEPES 10, MgSO4 0.82, CaNO3 0.33, CaCl2 0.33, pH=7.5) at 20° C. until the experiment.
Oocytes were plated in 96-well plates for microinjection using the Roboinject automated instrument (MultiChannelSystems, Reutlingen, Germany). Approximately 50 nL of an aqueous solution containing the RNA transcripts for the subunits of the desired GABAA receptor subtype was injected into each oocyte. […] Oocytes were kept in modified Barth's medium (composition in mM: NaCl 88, KCl 1, NaHCO3 […], HEPES 10, MgSO4 0.82, CaNO3 0.33, CaCl2 0.33, pH=7.5) at 20° C. until the experiment.
Electrophysiological experiments were performed using the Roboocyte instrument (MultiChannelSystems, Reutlingen, Germany) on days 3 to 5 after the micro-injection of mRNA. During the experiment the oocytes were constantly superfused by a solution containing (in mM) NaCl 90, KCl 1, HEPES 5, MgCl2 1, CaCl2 1 (pH 7.4). Oocytes were impaled by two glass microelectrodes (resistance: 0.5-0.8 MQ) which were filled with a solution containing KCl 1M+K-acetate 1.5 M and voltage-clamped to −80 mV. The recordings were performed at room temperature using the Roboocyte two-electrode voltage clamp system (Multichannelsystem). After an initial equilibration period of 1.5 min GABA was added for 1.5 min at a concentration evoking approximately 20% of a maximal current response (EC20). After another rest interval of 2.5 min GABA was again added evoking a response of similar amplitude and shape. […] Current traces were recorded at a digitization rate of 10 Hz during and shortly before and after the GABA application.
Each compound and concentration was tested on at least 3 oocytes. Different oocytes were used for different compound concentrations.
For the analysis, the digitized current traces of the first and second GABA response were superimposed and, if necessary, rescaled to equal maximal amplitudes. The ratio between the two responses during the time interval of test compound application was calculated point by point. The extremum of the resulting “ratio trace” was taken as the efficacy (“Fold increase”) of the compound expressed as “% modulation of GABA EC20” (100*(Fold increase−1)).
On the technique in general: Two-electrode voltage clamp is typically applied to oocytes expressing channels or transporters.

[4] abbreviates: Ki h-GABAA α2β2γ1, membranes of HEK293F cells, [3H]RO7239181 20-30 nM, Table 1.
The mark [5] stands for this setting: Ki h-GABAA α2β2γ1, membranes of HEK293F cells, [3H]RO7239181 20-30 nM, Table 2.

Read-outs that look alike come from different tables or passages of the source.

In general, Ki refers to the dissociation constant of the complex between target and ligand, obtained from inhibition or displacement. `Cc1nnc2n1-c1sc3c(c1C(c1c(F)cccc1F)=N[C@H]2C)COCC[C@H]3F` [Example 54, (7S,16R)-9-(2,6-difluorophenyl)-16-fluoro-3,7-dimethyl-13-oxa-18-thia-2,4,5,8-tetrazatetracyclo[8.8.0.02,6.011,17]octadeca-1(10),3,5,8,11(17)-pentaene]: the Ki in assay [1] was 0.0091 µM; in assay [2] (setting [4]), 0.0358 µM; in assay [2] (setting [5]), 0.0358 µM; in assay [3], 5.08 µM. In assay [3] (Table 1), the “γ2/γ1 Selectivity Ratio” value worked out at 141.9.
As to `C[C@@H]1N=C(c2c(F)cccc2F)c2c(sc3c2CCCCC3)-n2c1n[nH]c2=O` [Example 6, (7S)-9-(2,6-difluorophenyl)-7-methyl-18-thia-2,4,5,8-tetrazatetracyclo[8.8.0.02,6.011,17]octadeca-1(10),5,8,11(17)-tetraen-3-one], the Ki in assay [1] came to 0.00369 µM; in assay [2] (setting [4]) it was 0.0373 µM; in assay [2] (setting [5]), 0.0373 µM; in assay [3] it was 2.44 µM. In assay [3] (Table 1), the “γ2/γ1 Selectivity Ratio” value came to 65.3. In assay [3] (Table 1), the LogSel amounted to 1.82.
For `Cc1ncc2n1-c1ccc(Cl)cc1C(c1ccccc1F)=NC2` [Midazolam, reference compound], the LogSel in assay [3] (Table 3) was −2.2. The “potentiation of the GABA-induced current” value at h-GABA-A α2β2γ1 is on record as ~60%.
As to `Cc1nnc2n1-c1ccc(Cl)cc1C(c1ccccc1)=NC2` [Alprazolam, reference compound], the LogSel in assay [3] (Table 3) is given as −2.3.
As for `CN1C(=O)CN=C(c2ccccc2F)c2cc([N+](=O)[O-])ccc21` [Flunitrazepam, reference compound], the “potentiation of the GABA-induced current” value at h-GABA-A α2β2γ1 was ~60%.
Turning to `C[C@@H]1N=C(c2c(F)cccc2F)c2c(sc3c2COCCO3)-n2nc(C(=O)NCC3(O)CC3)nc21` [Example 60, (7S)-9-(2,6-difluorophenyl)-N-[(1-hydroxycyclopropyl)methyl]-7-methyl-13,16-dioxa-18-thia-2,3,5,8-tetrazatetracyclo[8.8.0.02,6.011,17]octadeca-1(10),3,5,8,11(17)-pentaene-4-carboxamide], the Ki in assay [1] worked out at 0.00286 µM; in assay [2] (setting [4]), 0.0234 µM; in assay [2] (setting [5]), 0.0234 µM; in assay [3] (HEK293F cells, [3H]Flumazenil 1 nM, Table 1, read-out: Ki h-GABAA α1β3γ2), 3.69 µM. For the same compound, the “γ2/γ1 Selectivity Ratio” value in assay [3] (Table 1) came out at 157.4. The compound further gave a LogSel in assay [3] (Table 1) of 2.20.
With `Cc1nnc2n1-c1sc3c(c1C(c1c(F)cccc1F)=N[C@H]2C)COCC[C@@H]3F` (single isomer, unassigned) [Example 55], the Ki is 0.009 µM in assay [1], 0.0478 µM in assay [2] (setting [4]), 0.0478 µM in assay [2] (setting [5]) and 2.69 µM in assay [3]. The “γ2/γ1 Selectivity Ratio” value in assay [3] (Table 1) turned out to be 56.2. The same compound returned a LogSel in assay [3] (Table 1) of 1.75.
In the case of `Cc1cn2c(n1)[C@H](C)N=C(c1c(F)cccc1F)c1c-2sc2c1COCCC2` [Example 58, (7S)-9-(2,6-difluorophenyl)-4,7-dimethyl-13-oxa-18-thia-2,5,8-triazatetracyclo[8.8.0.02,6.011,17]octadeca-1(10),3,5,8,11(17)-pentaene], the Ki in assay [1] came to 0.00259 µM; in assay [2] (setting [4]), 0.025 µM; in assay [2] (setting [5]) it was 0.025 µM; in assay [3], 1.4 µM. Further, the “γ2/γ1 Selectivity Ratio” value in assay [3] (Table 1) is given as 56.0. The compound also yielded a LogSel in assay [3] (Table 1) of 1.75.
On to `Cc1nnc2n1-c1ccc(Cl)cc1C(c1ccccc1Cl)=NC2` [Triazolam, reference compound], for which, in assay [3] (Table 3), the LogSel was −1.5. Besides, on h-GABA-A α2β2γ1, the “potentiation of the GABA-induced current” value is ~60%.
For the compound `Cc1nnc2n1-c1sc3c(c1C(c1c(F)cccc1F)=N[C@H]2C)CCCC3` [RE-B, (7S)-9-(2,6-difluorophenyl)-3,7-dimethyl-17-thia-2,4,5,8-tetrazatetracyclo[8.7.0.02,6.011,16]heptadeca-1(10),3,5,8,11(16)-pentaene, reference compound], the Ki in assay [2] (Ki h-GABAA α2β2γ1, Table 3, reference compounds and examples) turned out to be 0.0577 µM; in assay [3], 0.0216 µM. In addition, the “γ2/γ1 Selectivity Ratio” value in assay [3] (Table 3) was 2.68.
Turning to `Clc1ccc2c(c1)C(c1ccccc1)=NCc1nncn1-2` [Estazolam, reference compound], in assay [3] (Table 3), the “γ2/γ1 Selectivity Ratio” value came out at 0.0089 and the LogSel is recorded as −2.0.

For the origin of these results see patent US20240294543A1, “CYCLOHEPTA-THIENO-DIAZEPINE DERIVATIVES AS GABA A GAMMA1 PAM” (Hoffmann-La Roche Inc., priority 2021, published 2024).
